Measured values reported in PMC9403717, “Ruthenium complexes show potent inhibition of AKR1C1, AKR1C2, and AKR1C3 enzymes and anti-proliferative action against chemoresistant ovarian cancer cell line” (Frontiers in Pharmacology, 2022).

Assays:
Format in all cases: cell-based, human
HIO80 cells = test: Cell proliferation assay (alamarBlue), control cell line HIO80; settings: 48 h incubation
Method: (§1) The cell line COV362 (CVCL_2,420) was originally established from a high-grade ovarian serous adenocarcinoma from a metastatic site in the pleural effusion ([van den Berg-Bakker et al., 1993]) and was purchased from ECACC (ECACC 07071910) as p37 on 13 October 2017. The growth medium for COV362 cells was DMEM (D5546; Sigma–Aldrich GmbH), with 10% FBS (F9665; Sigma–Aldrich GmbH) and 2 mM L-glutamine (G7513; Sigma–Aldrich GmbH). COV362 cells in passages p37 + 12 to p37 + 17 were used in this study and seeded at a concentration of 3.5 cells/ml × 10^4 cells/ml for proliferation studies and at a concentration of 5.3 × 10^5/ml for migration studies. The cell line OVCAR-4 (CVCL_1,627) is a high-grade serous ovarian adenocarcinoma cell line established from a patient refractory to cisplatin ([Johnson et al., 1997]). The cell line was purchased from Merck on 19 March 2021. The growth medium for OVCAR-4 cells was RPMI-1640 (Sigma R5586) supplemented with 2 mM glutamine (G7513; Sigma–Aldrich GmbH), 10% FBS (F9665; Sigma–Aldrich GmbH), 0.25 μg/ml insulin (I9278; Sigma–Aldrich GmbH). OVCAR-4 cells in passages p+6 to p+15 were used in this study and seeded at a concentration of 6 cells/ml × 10^4 cells/ml. The control cell line HIO80 (CVCL_E274) was obtained from Andrew K. Godwin (University of Kansas Medical Center, Kansas, United States) on 20 October 2017 as p+72. It was originally established from ovarian surface epithelium ([Yang et al., 2004]). HIO80 cells were grown in RPMI medium (R5886, Sigma–Aldrich GmbH) supplemented with 10% FBS (F9665; Sigma–Aldrich GmbH), 2 mm L-glutamine (G7513; Sigma–Aldrich GmbH) and 6.6 µg/ml insulin (I9278; Sigma–Aldrich GmbH). HIO80 cells in passages p72 + 8 to p72 + 19 were used in this study and seeded at a concentration of 2 × 10^4 cells/mL. HIO80 in passage +10 was authenticated by short tandem repeats (STR) profiling performed by ATCC on 22 February 2019. Cells were grown in a humidified atmosphere containing 5% CO2 at 37°C. All cell lines were negative for mycoplasma infection which was periodically tested using MycoAlert^TM mycoplasma detection kit (Lonza, Basel, Switzerland).
(§2) The effect of ruthenium compounds on the proliferation of ovarian cancer cell lines COV362 and OVCAR-4 and the control cell line HIO80 was analyzed using the cell proliferation reagent alamarBlue HS (A50101; Thermo Fisher Scientific) following the manufacturer’s instructions.
(§3) Cells were seeded in 96-well plates in 100 µL of medium and allowed to adhere and grow for 24 h. […] Cisplatin and carboplatin purchased from Sigma–Aldrich GmbH (cat. number: PHR1624, lot: LRAB7778) and (cat. number: C2538, lot: MKCK1243) were dissolved in sterile water. Working solutions were prepared by a serial dilution of stock solutions with a culture medium. After the initial incubation, cells were treated with ruthenium complexes, cisplatin, and carboplatin. A range of final concentrations between 0.001 and 300 µM were used for ruthenium complexes and cisplatin, and between 0.001 µM and 1 mM for carboplatin. After 48 h of incubation, plates were incubated with 20 µL of alamarBlue. After 4 h absorbance was measured with a BioTek microplate spectrophotometer at 570 nm, with the reference wavelength set at 600 nm. First, the background value of a well containing the active substance without cells was subtracted, then the average values for duplicates/triplicates were calculated. The absorbance of the well containing only untreated cells was used as a normalization control. The half-maximal […] concentration (IC50) was determined for all ruthenium complexes with a growth-inhibiting effect on cells by constructing a dose-response curve (Graph Pad Prism, Version 8.0).

OVCAR-4 cells = test: Cell proliferation assay (alamarBlue), OVCAR-4; settings: for IC50: OVCAR-4, 48 h incubation
Method: as §1, §2, §3

COV362 cells = test: Cell migration assay (Ibidi culture inserts), COV362; settings: 100 μM; for effect on cell migration (in words): 24 and 48 h
Method: Cell migration assay was performed using Ibidi® three-well culture inserts. The inserts were placed in six-well plates. In total, 70 µL of cell suspension was seeded in the inserts and allowed to adhere and grow for 24 h. When the cells formed a confluent monolayer, the inserts were carefully removed and the cells were washed two times with DPBS. Cells were treated with 100 μM (final concentration) of compounds 8, 9, cisplatin, and carboplatin in 2 ml of growth medium. Cells treated with a medium containing the same volume of sterile water or DMSO were used as the controls. Images of cell gaps were taken with Axio Scope A1 Polarized Light Microscope (Zeiss) at the time of treatment, 24 and 48 h after, and analyzed using ImageJ software.

| SMILES | IC50 (HIO80 cells) | IC50 (OVCAR-4 cells) | other results |
| --- | --- | --- | --- |
| Cc1ccc(C(C)C)cc1.O=C(C=C([O][Ru][Cl])c1ccc(I)cc1)C(F)(F)F [Compound 1] | 41.9 µM | – | – |
| C1N2CN3CN1CP(C2)C3.Cc1ccc(C(C)C)cc1.F[P-](F)(F)(F)(F)F.O=C(C=C([O][Ru+])c1ccc(I)cc1)C(F)(F)F [Compound 2] | 92 µM | – | – |
| CN(C)c1ccc(C(=CC(=O)C(F)(F)F)[O][Ru][Cl])cc1.Cc1ccc(C(C)C)cc1 [Compound 3, (η^6-p-cymene)chlorido(4,4,4-trifluoro-1-(4-(dimethylamino)phenyl)-1,3-butandionato)ruthenium(II)] | 34.7 µM | – | – |
| Cc1ccc(C(C)C)cc1.O=C(C=C([O][Ru][Cl])c1ccc2c(c1)OCO2)C(F)(F)F [Compound 5] | 60.5 µM | – | – |
| C1N2CN3CN1CP(C2)C3.Cc1ccc(C(C)C)cc1.F[P-](F)(F)(F)(F)F.O=C(C=C([O][Ru+])c1ccc2c(c1)OCO2)C(F)(F)F [Compound 6] | 187 µM | – | – |
| Cc1ccc(C(C)C)cc1.[Cl-].[O-]c1c(I)cc(Cl)c2cccnc12.[Ru+2] [Compound 7] | 14.3 µM | 28.1 µM | fold higher IC50 value on OVCAR-4 compared to COV362 (OVCAR-4 cells): 1.6 fold |
| C1N2CN3CN1CP(C2)C3.Cc1ccc(C(C)C)cc1.F[P-](F)(F)(F)(F)F.[O-]c1c(I)cc(Cl)c2cccnc12.[Ru+2] [Compound 8] | 32.5 µM | 97.5 µM | effect on cell migration (in words) (COV362 cells): inhibited cell migration similarly to cisplatin; fold higher IC50 value on OVCAR-4 compared to COV362 (OVCAR-4 cells): 2.6 fold |
| Cc1ccc(C(C)C)cc1.O=[N+]([O-])c1ccc([O][Ru][Cl])c2ncccc12 [Compound 9, (η ^6-p-Cymene) (nitroxolinato)chloridoruthenium (II)] | 12.8 µM | 14.4 µM | effect on cell migration (in words) (COV362 cells): prevented migration; cytotoxic effect in migration assay (in words) (COV362 cells; after 48 h incubation): cytotoxic effect; fold lower IC50 value on OVCAR-4 compared to COV362 (OVCAR-4 cells): 1.5 fold |
| C1N2CN3CN1CP(C2)C3.Cc1ccc(C(C)C)cc1.F[P-](F)(F)(F)(F)F.O=[N+]([O-])c1ccc([O][Ru+])c2ncccc12 [Compound 10, (η ^6-p-cymene)(nitroxolinato)(pta)ruthenium(II) hexafluorophosphate] | > 200 µM | – | – |
